Patent publication US9777037B2, “Neurosteroid compounds” (BIONATURE E. A. LTD., priority 2007, dated 2017)

Legend:
progenitor neural cells = test: Neurogenesis of progenitor neural cells isolated from mouse fetal brain; format: cell-based; conditions: 100 nM, 24 hours (FIG. 8)
Experimental: This effect appeared to be EGF/bFGF dependent. […] The extent of migration of the first days in culture was mostly normalised as in most conditions cells had migrated out of the sphere to the periphery. The photographs shown (FIG. 7) were obtained on the 6th day of culture where migration effects are not so dramatic but still evident. Additionally, progenitor neural cells, isolated from mouse fetal brain, were exposed for 24 hours to 100 nM of BNN-93 or to the vehicle (control).

[1] = tested on: tyrosine hydroxylase mRNA; test: Tyrosine hydroxylase (TH) RT-PCR in dopaminergic PC12 cells; format: cell-based, rat; conditions: dopaminergic PC12 cells (FIG. 6C)
Experimental: Tyrosine Hydroxylase (TH) RT-PCR: Total RNA was extracted from dopaminergic PC12 cells using the Trizol Reagent (Invitrogen Life technologies, CA). One microgram of total RNA was reverse transcribed by the Thermo-Script RT-PCR System (Invitrogen) using random hexamers in a total volume of 20 μl. Two microliters of the RT product was used as a template, amplified by PCR using 2 mM MgCl2, one strength PCR buffer, 0.2 mM of sense and antisense primers, 0.2 mM dNTPs and 2.5 U AmpliTaq Gold DNA polymerase (Perkin Elmer ABD, Foster City, Calif.) in a final reaction volume of 50 μl. PCR was performed in a Perkin Elmer DNA Thermal Cycler. Primers for TH were 5′-[…]-3′ (sense), and 5-[…]-3 (antisense) and for G3PDH were, 5′-[…]-3′ (sense), and 5′-[…]-3′ (antisense). Oligonucleotides were synthesized by MWG-Biotech AG (Munich, Germany). After reverse transcription, the cDNA product was amplified by PCR, at 33 cycles. The cycle number (33) was chosen such that amplification of the products was in the linear range with respect to the amount of input cDNA. PCR for G3PDH was performed in parallel to assure good quality of RNA and cDNA preparations. Each cycle consisted of 60 s at 92° C. for denaturation, 120 s at 53° C. for annealing, and 180 s at 72° C. for extension (60 s at 98° C., 90 s at 55° C., and 150 s at 72° C. for G3PDH respectively). 10 μl of the amplified products (368 bp for TH and 983 bp for G3PDH) were separated on a 2% agarose gel and visualized by ethidium bromide staining.

[2] = tested on: Neural-crest derived PC12 cells; test: APOPercentage apoptosis assay, serum-deprivation induced apoptosis of PC12 cells; format: cell-based, rat; conditions: for IC50: Rattus norvegicus, PC-12, absence of serum 12 hours, ApoPercentage assay (FIG. 2), read-out: IC50 of anti-apoptotic, cytoprotective effect
Experimental: Neural-crest derived PC12 cells were maintained in culture at 5% CO2, at 37° C., in RPMI 1640 medium containing 2 mM L-glutamine, 15 mM HEPES, 100 units/ml penicillin, 0.1 mg/ml streptomycin, 10% horse serum, and 5% foetal calf serum. Serum free medium was supplemented with 1% bovine serum albumin (BSA). Different steroids, used at various concentrations, were initially diluted in ethanol. The final concentration of ethanol in each well, including controls was 0.01%. Conjugate DHEA-BSA was initially diluted in Phosphate Buffer Saline (PBS).
Cells were cultured in the absence of serum for 12 hours, supplemented with DHEA and various synthetic spiro neurosteroids at 10 nM. Cell apoptosis was quantitated with two different methods: The APOPercentage Apoptosis Assay (Biocolor Ltd., Belfast, N. Ireland) was used to quantify apoptosis, according to the manufacturer's instructions. Apoptosis was quantified following cell lysis by measuring the dye incorporated in apoptotic cells at 550 nm (reference filter 620 nm) using a colour filter microplate colorimeter (Dynatech MicroElisa reader, Chantilly, Va.) (see FIGS. 1 and 2). FACS Analysis: FACS analysis of apoptotic cells was performed according to our protocol (Proc Natl Acad Sci USA 101,8209 (2004)). Flow cytometry was performed with FACScan (Becton Dickinson, Heidelberg, Germany) and the results were analysed with the FACScan and Cell Quest softwares (see FIG. 3).

[3] = tested on: Primary cortical neurospheres; test: Migration of neural cells from primary cortical neurospheres; format: cell-based, mouse; conditions: 10^-7 M, within 24-48 hrs of culture, EGF/bFGF dependent (FIG. 7)
Experimental: Primary cortical neurospheres (21d) generated from wild type mice were cultured attached on PLL and laminin-coated coverslips in serum-free media in the presence or absence of EGF and bFGF (20 ng/ml final concentration each). For the screen, the media was supplemented with ethanol, retinoic acid (at-RA), DHEA, or the synthetic spiro neurosteroid BNN-93, at a final concentration of 10^−7M.

[4] = tested on: Dopaminergic neural-crest derived PC12 cells; test: Dopamine secretion from dopaminergic PC12 cells (radioimmunoassay); format: cell-based, rat; conditions: 10^-7 M; for dopamine levels in culture media, long-term: 3 to 48 hours (FIG. 6B); for stimulation of dopamine secretion, short-term: 5 to 30 min, effect within 10 min (FIG. 6A)
Experimental: Dopaminergic neural-crest derived PC12 cells were grown in 6-well plates, coated with poly-L-lysine, at a concentration of 10^6 cells/well. Cells were incubated with neurosteroids or the vehicle for several time periods; for the short-term experiments the incubation time ranged from 5 to 30 minutes and for the long-term from 3 to 48 hours. 1 mL of supernatants were transferred to tubes containing 200 μl 0.1 M HCl for measurement of dopamine, which was measured by radioimmunoassay (TriCat™ RIA, RE29395, IBL Immuno Biological Lab., Hamburg, Germany) using ^125I as a tracer. The analytical sensitivity of the method was 30 pg/ml, its intra-assay CV was 9.5%, and its inter-assay CV was 16.7%. The cross reactivity between dopamine and norepinephrine was <0.013%

[5] = tested on: DHEA specific membrane receptors; test: [3H]DHEA competition binding on isolated PC12 cell membranes; parameters: species or system rat; conditions: for Kd: isolated PC12 cell membranes, 5 nM [3H]DHEA (FIG. 5)
Experimental: PC12 rat sympathoadrenal cells were cultured in 225 cm^2 flasks and, after washing twice with PBS, they were detached from the flasks by vigorous shaking. After a centrifugation at 1500 g, they were homogenized by sonication, in a 50 mM Tris-HCl buffer pH 7.4 at 4° C., containing freshly added protease inhibitors (1 mM PMSF and 1 μg/ml aprotinin). Unbroken cells were removed by centrifugation at 1500 g (10 min at 4° C.), and membranes were collected by centrifuging at 102,000 g for 1 hr at 4° C. Membranes were washed once with Tris-HCl, briefly acidified at 4° C. (for 3 min) with 50 mM glycine (pH 5.0), and re-suspended in the same buffer. Protein content was assayed by the method of Bradford, using reagents from Bio-Rad (Hercules, Calif.). Membranes (at a final concentration of 2 mg/ml) were incubated with 5 nM [^3H]DHEA, in the absence (to determine the total binding) or presence of unlabeled neurosteroids and their synthetic spiro analogs, at concentrations varying from 10^−12 to 10^−6 M and at a final volume of 100 μl, in Tris-HCl buffer (50 mM, pH 7.4). Following a […] incubation in a water bath, at 37° C., membranes were collected on GF/B filters, prewet in 0.5% PEI solution at 4° C. The filters were washed three times with ice-cold Tris-HCl, dried, supplemented with scintillation medium (Sigma Hellas, Athens, Greece) and counted in a β-scintillation counter (Perkin Elmer, Foster City, Calif.) with 60% efficiency for Tritium.

[6] = tested on: Bcl-2 and Bcl-xL proteins; test: Western blot of anti-apoptotic Bcl-2 and Bcl-xL proteins in serum-deprived PC12 cells; format: cell-based, rat; conditions: 10 nM neurosteroid (FIG. 4)
Experimental: Neural-crest derived PC12 cells were cultured for 8 hours in the absence of serum, but supplemented with 10 nM of various neurosteroids. At the end of incubation cell lysates were subjected to electrophoresis through a 12% SDS-polyacrylamide gel. Then, proteins were transferred to nitrocellulose membranes, which were processed according to standard Western blotting procedures. To detect protein levels, membranes were incubated with the appropriate antibodies: Bcl-2, (Santa Cruz Biotechnology Inc., Santa Cruz, Calif., dilution 1:100) Bcl-xL (Cell Signalling Technology Inc., Beverly, Mass., dilution 1:100). A PC-based Image Analysis program was used to quantify the intensity of each band (Image Analysis, Inc., Ontario, Canada). To normalize for protein content, the blots were stripped and stained with anti-actin antibodies (Chemicon, Temecula, Calif., dilution 1:400); the concentration of each target protein was normalized versus actin.

[7] = tested on: Bcl-2 protein and ERK1/2 kinase; test: Western blot of Bcl-2 and phosphorylated ERK1/2 in serum deprived PC12 cells; format: cell-based, rat; conditions: 8 hours, 10 nM BNN-124 or 20 ng/ml NGF (FIG. 9)
Experimental: Neural-crest derived PC12 cells were cultured for 8 hours in the absence of serum, but supplemented with 10 nM of synthetic neurosteroids of 20 ng/ml of NGF. At the end of incubation cell lysates were subjected to electrophoresis through a 12% SDS-polyacrylamide gel. Then proteins were transferred to nitrocellulose membranes, which were processed according to standard Western blotting procedures. To detect protein levels, membranes were incubated with the appropriate antibodies: Bcl-2 (Santa Cruz Biotechnology Inc., Santa Cruz, Calif., dilution 1:100), phosphorylated ERK1/2 (Cell Signalling Technology Inc., Beverly, Mass., dilution 1:100). To normalize for protein content, the blots were stripped and stained with anti-actin or anti-total ERK1/2 antibodies (Chemicon, Temecula, Calif., dilution 1:400).

TrkA NGF receptors = molecular target: T1, TrkA NGF receptors (Homo sapiens, UniProt P04629); test: [3H]DHEA competition binding on membranes from HEK293 TrkA cells; conditions: membranes from HEK293 TrkA cells (FIG. 9)
T1 construct: expressed in transfected cells; host or cells: HEK293
T1 sequence (P04629 33-796): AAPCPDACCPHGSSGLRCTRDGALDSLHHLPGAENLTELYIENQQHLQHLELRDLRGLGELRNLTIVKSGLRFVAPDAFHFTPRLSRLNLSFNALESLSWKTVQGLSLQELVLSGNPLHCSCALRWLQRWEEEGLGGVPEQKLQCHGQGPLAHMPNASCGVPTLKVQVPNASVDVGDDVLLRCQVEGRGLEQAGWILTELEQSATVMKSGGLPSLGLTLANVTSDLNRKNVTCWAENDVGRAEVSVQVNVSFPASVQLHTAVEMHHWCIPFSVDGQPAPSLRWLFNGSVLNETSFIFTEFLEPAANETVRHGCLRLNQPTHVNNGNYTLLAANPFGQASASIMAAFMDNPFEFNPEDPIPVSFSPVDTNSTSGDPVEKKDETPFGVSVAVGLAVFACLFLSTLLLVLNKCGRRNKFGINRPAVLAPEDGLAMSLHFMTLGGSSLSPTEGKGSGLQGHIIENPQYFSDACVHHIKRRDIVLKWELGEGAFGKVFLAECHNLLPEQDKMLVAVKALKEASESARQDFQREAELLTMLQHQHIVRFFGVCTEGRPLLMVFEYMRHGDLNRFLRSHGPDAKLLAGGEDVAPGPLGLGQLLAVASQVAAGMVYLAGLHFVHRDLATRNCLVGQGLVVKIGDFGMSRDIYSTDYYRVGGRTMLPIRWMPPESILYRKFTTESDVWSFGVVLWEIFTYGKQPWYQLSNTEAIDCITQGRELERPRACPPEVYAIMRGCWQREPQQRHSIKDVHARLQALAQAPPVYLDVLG
Experimental: (§1) HEK293 cells were transfected with the cDNAs of TrkA and p75NTR, the high and low affinity receptors for nerve growth factor (NGF) (Ann Rev Biochem 72:604, 2003). Transfectants expressing the two NGF receptor subtypes were cultured in flasks and, after washing twice with PBS, they were detached from the flasks. After a centrifugation at 1500 g, they were homogenized by sonication, in a 50 mM Tris-HCl buffer pH 7.4 at 4° C., containing freshly added protease inhibitors (1 mM PMSF and 1 μg/ml aprotinin). Unbroken cells were removed by centrifugation at 1500 g (10 min at 4° C.), and membranes were collected by centrifuging at 102,000 g for 1 hr at 4° C. Membranes were washed once with Tris-HCl, briefly acidified at 4° C. (for 3 min) with 50 mM glycine (pH 5.0), and re-suspended in the same buffer. Protein content was assayed by the method of Bradford, using reagents from Bio-Rad (Hercules, Calif.). Membranes (at a final concentration of 2 mg/ml) were incubated with 5 nM [^3H]DHEA, in the absence (to determine the total binding) or presence of unlabelled BNN-124 at concentrations varying from 10^−12 to 10^−6 M and at a final volume of 100 μl, in Tris-HCl buffer (50 mM, pH 7.4). […] The filters were washed three times with ice-cold Tris-HCl, dried and counted in a β-scintillation counter (Perkin Elmer, Foster City, Calif.) with 60% efficiency for tritium.

p75NTR NGF receptors = molecular target: T2, p75NTR NGF receptors (Homo sapiens, UniProt P08138); test: [3H]DHEA competition binding on membranes from HEK293 p75NTR cells; conditions: membranes from HEK293 p75NTR cells (FIG. 9)
T2 construct: expressed in transfected cells; host or cells: HEK293
T2 sequence (P08138 29-427): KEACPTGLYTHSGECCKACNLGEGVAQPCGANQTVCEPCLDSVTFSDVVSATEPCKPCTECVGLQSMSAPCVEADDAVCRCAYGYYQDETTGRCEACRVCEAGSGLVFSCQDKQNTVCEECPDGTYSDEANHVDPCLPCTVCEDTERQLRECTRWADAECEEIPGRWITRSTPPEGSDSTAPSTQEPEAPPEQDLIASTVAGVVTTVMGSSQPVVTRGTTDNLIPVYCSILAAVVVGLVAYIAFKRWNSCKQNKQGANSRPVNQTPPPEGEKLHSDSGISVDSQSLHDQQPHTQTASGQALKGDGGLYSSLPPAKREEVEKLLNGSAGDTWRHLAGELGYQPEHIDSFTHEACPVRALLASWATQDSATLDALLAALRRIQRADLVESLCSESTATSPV
Experimental: as §1

C[C@]12CC[C@H](O)CC1=CCC1C2CC[C@@]2(C)C1CC[C@@]21OC1CO (stereo partly drawn) [BNN-93, 3β,21-dihydroxy-17α,20-epoxy-5-pregnene]
neurogenesis and differentiation of progenitors to neural cells (progenitor neural cells): stimulated neurogenesis and differentiation
induction of tyrosine hydroxylase mRNA [1]: strong induction
IC50 [2]: 4.16 nM
migration of neural cells to the periphery of the neurospheres [3]: extensive migration
dopamine levels in culture media, long-term [4]: increase of dopamine levels peaking at 24 h
stimulation of dopamine secretion, short-term [4]: doubling their levels
displacement of specific [3H]DHEA binding ([5]; at 1 μM, PC12 cell membranes): approximately 60%
Kd [5]: 11.2 nM
levels of anti-apoptotic Bcl-2 and Bcl-xL proteins [6]: preventing this effect

NGF: nerve growth factor
induction of anti-apoptotic Bcl-2 protein and phosphorylation of ERK1/2 kinase [7]: inducing

C[C@]12CC[C@H](O)CC1=CCC1C2CC[C@@]2(C)C1CC[C@]21O[C@H]1CO (stereo partly drawn) [BNN-124, (20S)-3β,21-dihydroxy-17β,20-epoxy-5-pregnene]
Kd (TrkA NGF receptors): 0.29 nM
IC50 [2]: 68.4 nM
induction of anti-apoptotic Bcl-2 protein and phosphorylation of ERK1/2 kinase [7]: same effect
displacement of specific [3H]DHEA binding ([5]; at 1 μM, PC12 cell membranes): approximately 60%
Kd [5]: 0.33 nM
levels of anti-apoptotic Bcl-2 and Bcl-xL proteins [6]: preventing this effect
Kd (p75NTR NGF receptors): 1 nM

C[C@]12CC[C@H](OS(=O)(=O)O)CC1=CC[C@@H]1[C@@H]2CC[C@]2(C)C(=O)CC[C@@H]12 [DHEAS, reference compound]
induction of tyrosine hydroxylase mRNA [1]: strong induction
dopamine levels in culture media, long-term [4]: increase of dopamine levels peaking at 24 h

C[C@]12CC[C@H](O)CC1=CC[C@@H]1[C@@H]2CC[C@]2(C)C(=O)CC[C@@H]12 [DHEA, dehydroepiandrosterone, reference compound]
IC50 [2]: 0.15 nM
reversal of serum deprivation-induced apoptosis ([2]; absence of serum 12 hours, steroids at 10 nM (FIG. 1)): ~50%
migration of neural cells to the periphery of the neurospheres [3]: extensive migration
stimulation of dopamine secretion, short-term [4]: doubling their levels
competition for [3H]DHEA binding ([5]; at 1 μM, PC12 cell membranes): Almost complete competition
Kd [5]: 1.1 nM
levels of anti-apoptotic Bcl-2 and Bcl-xL proteins [6]: preventing this effect
